In patent publication US10960087B2, “Compositions and methods for treatment of diabetic retinopathy” (NOVARTIS AG, priority 2007, dated 2021):
Like-named read-outs stand apart in the source and are kept apart here.

Experiments:
[1] = biological target: LFA-1 (Homo sapiens, UniProt P20701); details: Lu et al. 2004; cited from earlier work
[2] = system: human mononucleocytes (PBMC) stimulated with staphylococcal enterotoxin B (SEB); assay: cells; assay type: cell-based

Chain of LFA-1 (P20701 26-1170): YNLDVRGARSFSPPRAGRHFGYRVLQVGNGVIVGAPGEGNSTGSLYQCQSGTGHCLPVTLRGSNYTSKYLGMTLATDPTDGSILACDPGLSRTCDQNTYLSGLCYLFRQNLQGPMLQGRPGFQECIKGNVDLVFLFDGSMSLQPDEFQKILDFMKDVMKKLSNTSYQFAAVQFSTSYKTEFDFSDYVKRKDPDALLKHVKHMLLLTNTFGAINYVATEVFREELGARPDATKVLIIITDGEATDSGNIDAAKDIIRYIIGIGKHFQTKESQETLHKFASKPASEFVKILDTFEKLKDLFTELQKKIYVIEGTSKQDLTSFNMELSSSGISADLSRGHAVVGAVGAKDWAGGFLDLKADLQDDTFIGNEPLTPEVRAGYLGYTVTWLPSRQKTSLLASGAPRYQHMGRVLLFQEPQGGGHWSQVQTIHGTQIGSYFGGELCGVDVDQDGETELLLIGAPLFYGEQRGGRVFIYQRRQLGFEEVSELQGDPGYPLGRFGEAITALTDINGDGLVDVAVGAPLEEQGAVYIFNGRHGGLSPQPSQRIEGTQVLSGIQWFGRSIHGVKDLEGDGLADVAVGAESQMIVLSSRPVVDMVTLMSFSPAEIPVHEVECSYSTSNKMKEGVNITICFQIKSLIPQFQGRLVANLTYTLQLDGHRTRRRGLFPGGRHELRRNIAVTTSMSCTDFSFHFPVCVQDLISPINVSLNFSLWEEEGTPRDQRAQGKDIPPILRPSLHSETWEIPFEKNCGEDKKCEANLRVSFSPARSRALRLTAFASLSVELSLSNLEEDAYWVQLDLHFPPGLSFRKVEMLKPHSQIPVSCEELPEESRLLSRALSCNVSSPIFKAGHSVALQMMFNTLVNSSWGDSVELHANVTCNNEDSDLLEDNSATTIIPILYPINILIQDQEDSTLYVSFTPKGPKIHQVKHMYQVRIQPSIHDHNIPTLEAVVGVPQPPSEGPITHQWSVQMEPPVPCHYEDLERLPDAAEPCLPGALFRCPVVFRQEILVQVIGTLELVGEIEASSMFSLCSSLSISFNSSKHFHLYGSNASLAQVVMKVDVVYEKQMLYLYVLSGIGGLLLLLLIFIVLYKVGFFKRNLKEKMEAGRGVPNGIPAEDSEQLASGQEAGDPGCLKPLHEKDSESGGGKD
Chain of LFA-1 (P05107 23-769 partner): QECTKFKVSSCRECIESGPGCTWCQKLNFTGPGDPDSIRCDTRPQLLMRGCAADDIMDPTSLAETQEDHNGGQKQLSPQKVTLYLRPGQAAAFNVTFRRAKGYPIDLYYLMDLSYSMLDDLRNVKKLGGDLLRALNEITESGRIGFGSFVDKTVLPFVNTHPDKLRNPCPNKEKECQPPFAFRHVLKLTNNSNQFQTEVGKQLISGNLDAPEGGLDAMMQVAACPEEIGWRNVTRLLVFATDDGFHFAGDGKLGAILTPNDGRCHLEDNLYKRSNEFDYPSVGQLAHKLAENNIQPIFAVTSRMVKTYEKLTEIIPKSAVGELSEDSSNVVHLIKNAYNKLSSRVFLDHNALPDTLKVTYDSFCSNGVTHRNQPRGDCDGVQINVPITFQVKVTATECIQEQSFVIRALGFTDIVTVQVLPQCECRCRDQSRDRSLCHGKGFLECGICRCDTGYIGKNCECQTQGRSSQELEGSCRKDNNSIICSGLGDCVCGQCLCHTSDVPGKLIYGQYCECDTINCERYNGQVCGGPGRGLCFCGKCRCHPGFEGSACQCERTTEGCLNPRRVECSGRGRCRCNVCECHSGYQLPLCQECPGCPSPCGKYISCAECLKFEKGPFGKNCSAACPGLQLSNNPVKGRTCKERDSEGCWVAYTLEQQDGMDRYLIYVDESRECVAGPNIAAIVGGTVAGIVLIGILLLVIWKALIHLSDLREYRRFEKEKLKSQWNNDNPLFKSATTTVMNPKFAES

Row | Molecule | Mode of antagonism of LFA-1 [1] | EC50 ([2]; read-out: EC50 Cytokine Release GM-CSF) [µM] | EC50 ([2]; read-out: EC50 Cytokine Release IFNγ) [µM] | EC50 ([2]; read-out: EC50 Cytokine Release IL-1α) [µM] | EC50 ([2]; read-out: EC50 Cytokine Release IL-1β) [µM] | EC50 ([2]; read-out: EC50 Cytokine Release IL-2) [µM] | EC50 ([2]; read-out: EC50 Cytokine Release IL-3) [µM] | EC50 ([2]; read-out: EC50 Cytokine Release IL-4) [µM] | EC50 ([2]; read-out: EC50 Cytokine Release IL-5) [µM] | EC50 ([2]; read-out: EC50 Cytokine Release IL-6) [µM] | EC50 ([2]; read-out: EC50 Cytokine Release IL-10) [µM] | EC50 ([2]; read-out: EC50 Cytokine Release IL-12p40) [µM] | EC50 ([2]; read-out: EC50 Cytokine Release IL-13) [µM] | EC50 ([2]; read-out: EC50 Cytokine Release IP-10) [µM] | EC50 ([2]; read-out: EC50 Cytokine Release MCP-1) [µM] | EC50 ([2]; read-out: EC50 Cytokine Release MIP-1α) [µM] | EC50 ([2]; read-out: EC50 Cytokine Release TNF-α) [µM]
1 | efalizumab: antibody directed against LFA-1 | directly competitive antagonist of LFA-1 |  |  |  |  |  |  |  |  |  |  |  |  |  |  |  | 
2 | O=C(NC(Cc1cc(=O)[nH]c2ccccc12)C(=O)O)c1ccc(Cl)cc1 (centres unmarked) [Rebamipide] |  | > 1000 | > 1000 | > 1000 | > 1000 | > 1000 | > 1000 | > 1000 | > 1000 | > 1000 | > 1000 | > 1000 | > 1000 | > 1000 | > 1000 | > 1000 | > 1000
